According to ChEMBL document CHEMBL1201862, “PubChem BioAssay data set” (2004):
Activity calls are given as the source filed them.

Key:
[1] = AlphaScreen signal interference compounds, dose response, artefact control for ARNT-TACC3 interaction inhibitor project, biochemical, luminescence, cherry-pick (AID 651705); type: functional;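 also: AlphaScreen bead proximity signal that flags compounds interfering with the detection technology; potency reflects signal decrease which marks the compound as an assay artifact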
[2] = molecular target: T1, High affinity choline transporter 1 (Homo sapiens, UniProt Q9GZV3); assay: CHT inhibitors, dose response, cell-based, 10-point CRC, membrane potential dye (AID 588401); type: functional;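 also: membrane potential dye fluorescence of choline-evoked depolarization via CHT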
T1 sequence (Q9GZV3 whole entry): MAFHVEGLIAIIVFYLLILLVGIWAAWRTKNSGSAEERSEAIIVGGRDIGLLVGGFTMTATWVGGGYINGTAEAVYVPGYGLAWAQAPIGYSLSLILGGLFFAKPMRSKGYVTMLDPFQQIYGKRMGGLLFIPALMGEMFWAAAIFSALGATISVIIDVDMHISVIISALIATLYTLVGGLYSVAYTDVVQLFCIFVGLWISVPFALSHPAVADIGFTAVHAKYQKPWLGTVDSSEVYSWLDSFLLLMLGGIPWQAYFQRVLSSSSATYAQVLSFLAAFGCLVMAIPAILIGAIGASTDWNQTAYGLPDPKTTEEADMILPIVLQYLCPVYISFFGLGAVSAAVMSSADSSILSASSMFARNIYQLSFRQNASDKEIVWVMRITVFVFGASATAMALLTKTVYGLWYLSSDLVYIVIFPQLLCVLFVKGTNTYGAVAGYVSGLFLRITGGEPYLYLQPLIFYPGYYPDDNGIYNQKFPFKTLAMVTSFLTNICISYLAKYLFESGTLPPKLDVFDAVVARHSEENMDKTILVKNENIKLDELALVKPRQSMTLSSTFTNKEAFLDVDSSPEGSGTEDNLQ

[3] = molecular target: T1, High affinity choline transporter 1; assay: CHT inhibitors, dose response, cell-based, 5-point CRC, membrane potential dye (AID 504840); type: functional
[4] = molecular target: T1, High affinity choline transporter 1; assay: inhibitors of CHT choline uptake, dose response, cell-based, 3H-choline uptake, CHT LV-AA trafficking mutant, CRC (AID 602208); type: functional
[5] = molecular target: Fructose-bisphosphate aldolase (Mycobacterium tuberculosis, UniProt P9WQA3); assay: Fluorescence-based biochemical high throughput dose response assay for inhibitors of the fructose-bisphosphate aldolase (FBA) of M. tuberculosis.; type: functional
Chain of Fructose-bisphosphate aldolase (P9WQA3 whole entry): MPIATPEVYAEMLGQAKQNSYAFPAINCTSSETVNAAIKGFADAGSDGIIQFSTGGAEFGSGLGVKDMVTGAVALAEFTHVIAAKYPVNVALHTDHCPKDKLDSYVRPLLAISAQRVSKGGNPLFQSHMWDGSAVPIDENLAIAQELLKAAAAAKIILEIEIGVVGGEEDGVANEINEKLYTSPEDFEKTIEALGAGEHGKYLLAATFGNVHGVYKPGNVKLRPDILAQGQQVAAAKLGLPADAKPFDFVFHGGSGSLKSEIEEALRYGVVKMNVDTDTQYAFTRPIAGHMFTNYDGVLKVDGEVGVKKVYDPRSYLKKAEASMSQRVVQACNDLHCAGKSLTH

[6] = HEK293 cell cytotoxicity, dose response, cytotoxicity control, plate reader, cherry-picked samples (AID 743446); type: functional, cell-based
[7] = MC4R antagonists, dose response, counter-screen for LGR2 antagonist project, cell-based, plate reader, cherry pick (AID 743444); type: functional;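 also: transfected HEK 293 cells stimulated with alpha-MSH peptide; potency of inhibitors of the alpha-MSH evoked signal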
[8] = molecular target: DNA repair and recombination protein RAD54-like (Homo sapiens, UniProt Q92698); assay: inhibitors of human RAD54 branch migration, confirmation, biochemical, fluorescence, cherry-picked samples, dose series (AID 651657); type: functional
Chain of DNA repair and recombination protein RAD54-like (Q92698 whole entry): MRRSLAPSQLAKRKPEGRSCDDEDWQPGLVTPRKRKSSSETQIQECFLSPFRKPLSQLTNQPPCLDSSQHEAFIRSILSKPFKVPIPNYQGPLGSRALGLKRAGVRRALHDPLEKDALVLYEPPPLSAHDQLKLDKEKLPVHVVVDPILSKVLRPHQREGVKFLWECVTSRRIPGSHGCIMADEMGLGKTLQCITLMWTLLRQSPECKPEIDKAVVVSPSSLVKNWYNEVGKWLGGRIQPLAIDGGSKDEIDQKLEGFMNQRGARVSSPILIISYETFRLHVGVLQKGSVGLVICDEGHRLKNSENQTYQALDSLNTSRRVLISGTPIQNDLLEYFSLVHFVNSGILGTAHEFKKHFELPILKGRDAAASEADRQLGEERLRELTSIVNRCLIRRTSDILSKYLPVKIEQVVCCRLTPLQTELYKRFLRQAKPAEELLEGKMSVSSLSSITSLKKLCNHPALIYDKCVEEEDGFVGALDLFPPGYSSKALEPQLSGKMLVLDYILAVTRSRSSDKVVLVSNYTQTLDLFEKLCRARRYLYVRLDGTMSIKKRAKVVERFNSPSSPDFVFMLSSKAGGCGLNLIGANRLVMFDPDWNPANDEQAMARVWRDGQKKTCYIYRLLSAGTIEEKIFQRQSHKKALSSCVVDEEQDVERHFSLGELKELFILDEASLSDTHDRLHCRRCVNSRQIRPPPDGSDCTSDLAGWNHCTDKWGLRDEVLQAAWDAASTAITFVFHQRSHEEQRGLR

[9] = A549 cell cytotoxicity, dose response, cytotoxicity control, plate reader, cherry-pick, antagonist series (AID 743412); type: functional, cell-based
[10] = LGR2 antagonists, dose response, cell-based, HEK293, CRE-luciferase reporter, cherry pick, set 2 (AID 743343); type: functional;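 also: transfected cells were stimulated with diluted bursicon conditioned medium after compound addition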
[11] = molecular target: T2, DNA repair protein RAD52 homolog (Homo sapiens, UniProt P43351); type: functional, biochemical
T2 sequence (P43351 whole entry): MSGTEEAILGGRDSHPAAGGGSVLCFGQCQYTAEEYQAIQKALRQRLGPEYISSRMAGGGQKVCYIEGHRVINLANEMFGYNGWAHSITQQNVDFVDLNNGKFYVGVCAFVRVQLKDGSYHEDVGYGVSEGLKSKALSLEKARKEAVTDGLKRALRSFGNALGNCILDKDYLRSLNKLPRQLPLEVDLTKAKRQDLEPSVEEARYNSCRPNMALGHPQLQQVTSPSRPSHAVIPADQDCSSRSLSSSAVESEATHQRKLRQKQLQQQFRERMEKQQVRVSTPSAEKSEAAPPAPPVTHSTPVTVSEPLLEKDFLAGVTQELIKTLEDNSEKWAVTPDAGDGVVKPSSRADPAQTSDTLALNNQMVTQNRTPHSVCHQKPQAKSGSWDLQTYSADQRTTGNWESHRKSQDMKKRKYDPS

[12] = HepG2 cell cytotoxicity, dose response, cytotoxicity control, plate reader, cherry-pick, antagonist series (AID 743416); type: functional, cell-based
[13] = molecular target: T3, Ubiquitin-conjugating enzyme E2 N (Homo sapiens, UniProt P61088); type: functional;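 also: Dose-response confirmation in a TR-FRET assay detecting UBC13-driven polyubiquitin chain formation, inhibition measured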
T3 sequence (P61088 whole entry): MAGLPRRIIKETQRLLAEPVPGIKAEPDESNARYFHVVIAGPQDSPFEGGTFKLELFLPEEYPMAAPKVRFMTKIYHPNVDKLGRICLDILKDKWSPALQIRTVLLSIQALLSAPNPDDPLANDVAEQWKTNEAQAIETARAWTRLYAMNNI

[14] = MDA-MB-231 cell growth inhibition, dose response, cytotoxicity control for RAD54 inhibitor project, CellTiter-Glo luminescence, cherry-pick (AID 651692); type: functional, cell-based
[15] = molecular target: Long-chain-fatty-acid--AMP ligase FadD28 (Mycobacterium tuberculosis, UniProt P9WQ59); assay: Fluorescence polarization aasay to screen for inhibitors that compete for the binding of FadD28 to a bisubstrate Measured in Biochemical System Using Plate Reader - 2147-01_Inhibitor_Dose_CherryPick_Activity.; type: functional, Mycobacterium tuberculosis H37Rv
Chain of Long-chain-fatty-acid--AMP ligase FadD28 (P9WQ59 whole entry): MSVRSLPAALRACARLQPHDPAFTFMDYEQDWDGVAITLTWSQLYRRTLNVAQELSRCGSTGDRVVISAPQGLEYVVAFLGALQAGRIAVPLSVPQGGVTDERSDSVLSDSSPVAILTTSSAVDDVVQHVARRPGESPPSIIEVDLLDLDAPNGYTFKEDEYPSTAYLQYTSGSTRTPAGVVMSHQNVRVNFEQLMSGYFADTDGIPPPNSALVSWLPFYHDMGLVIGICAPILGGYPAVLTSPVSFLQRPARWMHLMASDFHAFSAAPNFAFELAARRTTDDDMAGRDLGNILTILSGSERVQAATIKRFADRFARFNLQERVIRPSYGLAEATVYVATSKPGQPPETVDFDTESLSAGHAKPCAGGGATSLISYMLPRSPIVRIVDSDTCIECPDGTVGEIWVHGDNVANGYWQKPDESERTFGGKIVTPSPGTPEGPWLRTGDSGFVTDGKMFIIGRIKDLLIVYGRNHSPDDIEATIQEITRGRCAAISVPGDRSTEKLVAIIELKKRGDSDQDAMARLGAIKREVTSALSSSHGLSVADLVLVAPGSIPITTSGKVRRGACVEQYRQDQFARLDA

[16] = molecular target: Melanocortin receptor 4 (Homo sapiens, UniProt P32245); type: functional, cell-based;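 also: Cell-based assay with luminescence read-out, confirmatory dose-response testing for agonist activity of biased ligands at MC4R; human U2OS cells with tagged receptor and beta-arrestin; potency of agonists that increase receptor coupling to beta-arrestin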
Chain of Melanocortin receptor 4 (P32245 whole entry, the tested form may be a part): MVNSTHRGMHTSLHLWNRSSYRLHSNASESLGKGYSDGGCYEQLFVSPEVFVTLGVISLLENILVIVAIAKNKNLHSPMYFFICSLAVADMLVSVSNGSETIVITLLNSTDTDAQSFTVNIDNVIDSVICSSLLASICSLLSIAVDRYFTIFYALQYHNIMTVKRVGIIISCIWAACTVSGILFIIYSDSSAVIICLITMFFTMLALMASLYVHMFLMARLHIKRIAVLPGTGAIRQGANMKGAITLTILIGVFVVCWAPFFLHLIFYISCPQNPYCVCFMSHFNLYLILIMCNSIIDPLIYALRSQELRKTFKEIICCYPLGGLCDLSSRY

[17] = molecular target: Nucleotide-binding oligomerization domain-containing protein 2 (Homo sapiens, UniProt Q9HC29); assay: NOD2 signaling inhibitors, cell-based, luminescence, uHTS, HEK293 (AID 1566); type: functional
[18] = Shn3 3'UTR reporter inhibitors, dose response, cell-based, Clone20 osteoblasts, firefly luciferase, cherry-picked (AID 624132); type: functional;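 also: firefly luciferase luminescence from reporter carrying the Shn3 3'UTR in osteoblasts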
[19] = control 3'UTR Renilla luciferase suppression, dose response, counter-screen for Shn3 inhibitor project, cell-based, Clone20-Shn3RL, cherry-picked (AID 624133); type: functional
[20] = molecular target: Protein Wnt-3a (Mus musculus, UniProt P27467); assay: Wnt3a-driven reporter signaling inhibition, dose response, selectivity assay for Gli-SUFU antagonist project, Wnt-LIGHT cells, luminescence (AID 651570); type: functional; settings: read-out: IC50_Mean;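 also: Wnt-LIGHT reporter cells stimulated with conditioned medium from Wnt3a-producing cells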
Chain of Protein Wnt-3a (P27467 whole entry): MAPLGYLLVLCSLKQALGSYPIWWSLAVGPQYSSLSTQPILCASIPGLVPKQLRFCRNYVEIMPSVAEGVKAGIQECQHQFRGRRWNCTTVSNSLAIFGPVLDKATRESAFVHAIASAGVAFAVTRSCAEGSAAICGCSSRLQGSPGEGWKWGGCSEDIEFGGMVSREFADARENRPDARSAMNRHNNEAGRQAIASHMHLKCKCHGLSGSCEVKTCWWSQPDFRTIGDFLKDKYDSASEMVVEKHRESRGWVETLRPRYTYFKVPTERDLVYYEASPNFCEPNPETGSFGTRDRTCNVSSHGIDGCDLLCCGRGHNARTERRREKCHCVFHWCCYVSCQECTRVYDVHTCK

[21] = test system: HEK293; assay: cells; type: functional, cell-based; settings: Homo sapiens
[22] = HepG2 cell cytotoxicity, dose response, cytotoxicity control for Shn3 inhibitor project, CellTiter-Glo, cherry-picked (AID 624134); type: functional, cell-based
[23] = test system: HEK293; assay: cells; type: functional, cell-based; settings: Homo sapiens; remark: listed apart in the source
[24] = test system: HEK293; assay: NOD1 signaling inhibitors, primary screen, cell-based, luminescence, uHTS (AID 1578); type: functional; settings: Homo sapiens
[25] = test system: HEK293; assay: cells; type: functional, cell-based; settings: Homo sapiens; remark: listed apart in the source
[26] = molecular target: Beta Lactamase (Pseudomonas aeruginosa, UniProt Q932Y6); assay: beta-lactamase reporter inhibitor potency, dose response, artefact control for TLR9-MyD88 binding inhibitor project, BLA reporter cells, FRET fluorescence (AID 588341); type: cell-based;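 also: cell based assay in CHO-K1 cells stably expressing beta-lactamase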
Chain of Beta Lactamase (Q932Y6 whole entry): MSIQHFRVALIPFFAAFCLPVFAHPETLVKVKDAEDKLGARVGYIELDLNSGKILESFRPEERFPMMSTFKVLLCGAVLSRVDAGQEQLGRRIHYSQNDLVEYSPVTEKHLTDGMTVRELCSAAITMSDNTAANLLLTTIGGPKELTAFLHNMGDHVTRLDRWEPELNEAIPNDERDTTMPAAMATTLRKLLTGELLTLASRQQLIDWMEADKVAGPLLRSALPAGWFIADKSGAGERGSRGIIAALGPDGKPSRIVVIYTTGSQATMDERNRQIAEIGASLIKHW

[27] = molecular target: T4, Sentrin-specific protease 8 (Homo sapiens, UniProt Q96LD8); type: functional
T4 sequence (Q96LD8 whole entry): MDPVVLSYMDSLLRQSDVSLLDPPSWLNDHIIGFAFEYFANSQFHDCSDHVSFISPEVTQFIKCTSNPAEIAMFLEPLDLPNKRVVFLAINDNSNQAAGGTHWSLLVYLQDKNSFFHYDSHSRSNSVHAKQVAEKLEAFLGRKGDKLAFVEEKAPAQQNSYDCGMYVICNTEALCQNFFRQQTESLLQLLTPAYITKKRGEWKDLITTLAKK

[28] = test system: CHO; assay: cytotoxicity in TLR9-MyD88 CHO cells, dose response, cytotoxicity control for TLR9-MyD88 binding inhibitor project, cell-based, luminescence (AID 588339); type: functional, hamster; settings: Cricetulus griseus;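 also: CHO cells stably coexpressing TLR9 and MyD88 fusions from primary screen; compound exposure lasted 48 hours before viability readout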
[29] = molecular target: T4, Sentrin-specific protease 8; type: functional; remark: listed apart in the source
[30] = cells; type: functional, cell-based
[31] = cells; type: functional, cell-based; remark: listed apart in the source
[32] = StAR promoter reporter inhibition counter-screen, dose response, counter-screen for LRH-1 inverse agonist project, cell-based, luminescence, luciferase reporter (AID 651969); type: functional
[33] = molecular target: Nuclear receptor subfamily 5 group A member 2 (Homo sapiens, UniProt O00482); type: functional, cell-based;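 also: HEK293T cells transfected with LRH-1 and a StAR promoter luciferase reporter; potency for inhibitors that lower LRH-1 driven reporter light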
Chain of Nuclear receptor subfamily 5 group A member 2 (O00482 whole entry): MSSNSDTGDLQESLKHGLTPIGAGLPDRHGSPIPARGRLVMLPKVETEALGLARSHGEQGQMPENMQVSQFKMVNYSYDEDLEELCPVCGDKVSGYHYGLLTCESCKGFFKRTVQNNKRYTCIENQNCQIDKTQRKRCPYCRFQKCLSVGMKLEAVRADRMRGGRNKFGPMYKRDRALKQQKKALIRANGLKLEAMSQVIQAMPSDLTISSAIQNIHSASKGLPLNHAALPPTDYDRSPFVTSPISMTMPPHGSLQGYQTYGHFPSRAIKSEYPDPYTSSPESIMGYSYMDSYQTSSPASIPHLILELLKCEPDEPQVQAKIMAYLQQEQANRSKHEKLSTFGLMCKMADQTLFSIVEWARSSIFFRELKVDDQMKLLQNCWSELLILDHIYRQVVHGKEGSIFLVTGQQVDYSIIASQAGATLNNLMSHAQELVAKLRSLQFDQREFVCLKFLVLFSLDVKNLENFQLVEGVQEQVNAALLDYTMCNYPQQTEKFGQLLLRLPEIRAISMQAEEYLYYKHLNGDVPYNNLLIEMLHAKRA

[34] = molecular target: Steroidogenic factor 1 (Homo sapiens, UniProt Q13285); assay: Counterscreen for inverse agonists of the liver receptor homolog-1 (LRH-1; NR5A2): Luminescence-based cell-based high throughput dose response assay to identify inverse agonists of the Steroidogenic Factor 1 Nuclear Receptor (SF1; NR5A1).; type: functional
Chain of Steroidogenic factor 1 (Q13285 whole entry): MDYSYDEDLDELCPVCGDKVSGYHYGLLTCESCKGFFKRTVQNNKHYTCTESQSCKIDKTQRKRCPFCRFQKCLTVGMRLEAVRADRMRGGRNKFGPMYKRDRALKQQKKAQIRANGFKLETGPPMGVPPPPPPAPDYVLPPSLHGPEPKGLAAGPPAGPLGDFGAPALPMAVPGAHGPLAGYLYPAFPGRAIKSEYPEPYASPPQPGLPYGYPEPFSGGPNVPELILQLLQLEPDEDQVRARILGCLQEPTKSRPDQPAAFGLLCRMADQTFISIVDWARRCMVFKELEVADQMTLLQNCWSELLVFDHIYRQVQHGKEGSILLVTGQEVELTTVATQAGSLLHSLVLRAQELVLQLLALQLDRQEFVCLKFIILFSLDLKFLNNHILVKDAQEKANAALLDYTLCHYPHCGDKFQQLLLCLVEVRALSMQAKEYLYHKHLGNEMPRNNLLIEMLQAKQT

[35] = cytotoxicity in HEK-293T cells, dose response, cytotoxicity control for TCR NF-kB inhibitor project, luminescence, T-cell screen hits (AID 489026); type: functional, cell-based;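 also: cells exposed to compound about 14 hours before the viability readout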
[36] = test system: INS1; assay: beta cell apoptosis inhibitors, cytokine rescue, dose response, luminescence, retest (AID 449756); type: functional, cell-based; settings: Rattus norvegicus;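 also: cell death triggered by IL-1 beta plus TNF-alpha plus IFN-gamma mixture; protective hits raise ATP signal compared with cytokine alone wells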
[37] = molecular target: Benomyl/methotrexate resistance protein (Candida albicans, UniProt P28873); assay: CaMdr1 efflux pump inhibitor potency, dose response, singleplex, Cherry Pick1 hits (AID 588608); type: functional
Chain of Benomyl/methotrexate resistance protein (P28873 whole entry): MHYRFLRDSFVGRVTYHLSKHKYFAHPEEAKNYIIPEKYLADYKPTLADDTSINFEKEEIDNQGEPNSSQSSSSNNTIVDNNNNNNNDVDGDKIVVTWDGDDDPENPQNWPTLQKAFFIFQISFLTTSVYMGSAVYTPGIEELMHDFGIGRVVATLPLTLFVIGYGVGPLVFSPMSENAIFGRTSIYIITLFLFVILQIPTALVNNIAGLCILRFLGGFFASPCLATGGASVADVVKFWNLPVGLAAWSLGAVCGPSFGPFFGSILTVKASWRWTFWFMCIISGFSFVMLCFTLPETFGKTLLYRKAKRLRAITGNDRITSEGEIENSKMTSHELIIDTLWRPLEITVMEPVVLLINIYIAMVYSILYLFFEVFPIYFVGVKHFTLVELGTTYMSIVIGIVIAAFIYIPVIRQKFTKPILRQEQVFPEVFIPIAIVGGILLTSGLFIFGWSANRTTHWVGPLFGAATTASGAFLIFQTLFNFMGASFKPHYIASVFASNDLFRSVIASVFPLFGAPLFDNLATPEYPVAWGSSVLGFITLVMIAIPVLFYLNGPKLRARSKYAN

[38] = growth suppression of PTEN-null colon cells, dose response, cell-based, HCT116 PTEN knockout (AID 1047); type: functional;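 also: HCT116 colon tumor cells with PTEN knocked out; cells exposed to compound for 60 hours before readout; potency for loss of cell viability measured by luminescence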
[39] = NIH-3T3 fibroblast cytotoxicity, dose response, cytotoxicity control, cell-based, fluorescence, Alamar Blue, secondary assay (AID 2327); type: functional;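 also: NIH-3T3 mouse fibroblasts cultured with fluconazole at 8 µg/mL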
[40] = growth suppression of beta-catenin-knockout colon cells, dose response, cell-based, HCT116, human colon tumor (AID 1045); type: functional;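 also: HCT116 colon tumor cells with beta catenin knocked out; cells exposed to compound for 60 hours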

## O=C(COC(=O)c1cccs1)Nc1nnc(-c2ccccc2)o1
[1]
  AC50: 102 µM (active)

## O=C(Nc1ccc(S(=O)(=O)Nc2ccccn2)cc1)c1ccc(Cl)cc1Cl
[2]
  IC50: 3.81 µM (active)
[3]
  IC50: 4.17 µM (active)
[4]
  IC50: 12.8 µM (active)

## O=C1CCC(=O)c2ccc3c4c(ccc1c24)CC3
[5]
  IC50: 1.56 µM (active)

## COc1ccc(NC(=O)c2ccc(-c3ccc(-c4noc(C)n4)cc3C)cc2)cc1N1CCN(C)CC1
[6]
  AC50: 14.5 µM (active)
[7]
  AC50: 27.6 µM (active)
[8]
  AC50: 79 µM (active)
[9]
  AC50: 8.17 µM (active)
[10]
  AC50: 22.7 µM (active)
[11]
  AC50: 7.71 µM (active)
[12]
  AC50: 8.08 µM (active)
[13]
  IC50: > 20 µM (inactive)
[14]
  AC50: 14.4 µM (active)

## COc1cccc(NC(=O)Cn2nnc(-c3ccccc3N)n2)c1
[15]
  AC50: 66.6 µM (active)

## Cc1nn(C)cc1-c1cc(C(=O)O)c2ccccc2n1
[5]
  IC50: 1.91 µM (active)

## COc1cccc(-c2cnc3c(NC(C)=O)cc(-c4ccsc4)cn23)c1
[16]
  EC50: 26.2 µM (inactive)

## CC(=O)c1cn(Cc2ccccc2F)c2ccccc12
[17]
  EC50: 4.05 µM (active)
[18]
  AC50: 2.96 µM (active)
[19]
  AC50: 9.56 µM (active)
[20]
  IC50: 0.491 µM (active)
[21]
  IC50: 5 µM (active)
[22]
  AC50: 3.35 µM (active)
[23]
  IC50: > 20 µM (inactive)
[24]
  EC50: 2.96 µM (active)
[25]
  IC50: > 20 µM (inactive)

## O=C1Cc2ccccc2C(=O)N1c1ccccc1
[26]
  IC50: 3.97 µM (active)
[27]
  IC50: > 100 µM (inactive)
[28]
  IC50: > 49.7 µM (inactive)
[29]
  IC50: 12.9 µM (active)

## COC(=O)[C@]12C[C@H](CC(=O)NCCc3ccccc3OC)C(=O)N(Cc3ccc4c(c3)OCO4)C1=C[C@H](COCc1ccccc1)O[C@@H]2C
[30]
  IC50: > 29.9 µM (inactive)
[31]
  EC50: > 29.9 µM (inactive)

## COc1ccc(CCNC(=O)COC(=O)C23CC4CC(CC(Br)(C4)C2)C3)cc1
[32]
  IC50: 35.9 µM (inactive)
[33]
  IC50: 16.6 µM (inactive)
[34]
  IC50: 4.45 µM (active)

## Cc1ccc(SCc2c(C(=O)N/N=C/c3ccoc3)nnn2-c2nonc2N)cc1
[15]
  AC50: > 100 µM (inactive)

## CCc1cc(CNC(=O)c2ccc(OC)c(OC3CCN(C(C)C)CC3)c2)on1
[2]
  IC50: 0.597 µM (active)
[3]
  IC50: 0.316 µM (active)
[4]
  IC50: 0.0189 µM (active)

## C#CC[N+](C)(C)CCCCCCCCCCCC
[35]
  IC50: > 80 µM (inactive)
[36]
  AC50: 4.61 µM (active)
[37]
  EC50: 0.312 µM (active)
[20]
  IC50: 0.279 µM (active)
[38]
  EC50: 2.9 µM (active)
[39]
  EC50: > 160 µM (inconclusive)
[40]
  EC50: 3.33 µM (active)

## COc1ccc(/C=N/NC(=O)c2ccc(COc3ccccc3Cl)o2)c(OC)c1C
[16]
  EC50: > 89.2 µM (inactive)

## CCN(CC)C(=O)c1sc2nc(-c3ccccn3)nc(O)c2c1C
[1]
  AC50: 77.1 µM (active)

## O=C(Nc1ccc(S(=O)(=O)N2CCOCC2)cc1)c1cccc([N+](=O)[O-])c1
[32]
  IC50: 35.9 µM (inactive)
[33]
  IC50: 12 µM (inactive)
[34]
  IC50: 2.2 µM (active)
